Key:
[1] = test system: Chronic pain patients; conditions: chronic pain patients after i.v. R,S-ketamine; Persson et al., 1998; cited from earlier work
[2] = test system: rewarding effects of morphine; assay: Morphine-induced conditioned place preference; assay type: in vivo, mice; conditions: for Morphine CPP, dose blocking the rewarding effects of morphine: Table 11, Present study
Experimental: The methods for conditioned place preference and evaluation of R-ketamine were conducted using the general methods of Suzuki et al. (2000). The general design was to dose mice with either saline+saline, saline+morphine, or R-ketamine+morphine and evaluate their preference for the morphine-associated place.
Male ddY mice (20-23 g) were obtained from Tokyo Experimental Animals Inc. (Tokyo, Japan). The ddY mice were bred in a closed colony. The mice were housed at a temperature of 22 f 1° C. with a 12-h light-dark cycle (light on 8:30 a.m. to 8:30 p.m.). Food and water were available ad libitum.
Place conditioning was conducted as described previously, using a minor modification of a biased procedure according to Suzuki et al. (2000). The apparatus consisted of a shuttlebox (15×30×15 cm: w×l×h) made of an acryl-resin board. The box was divided into two compartments of equal size by means of a sliding partition. One compartment was white with a textured floor; the other was black with a smooth floor. For conditioning mice were immediately conditioned to the white compartment following drug injection and to the black compartment following vehicle injection.
Conditioning sessions were conducted once daily for 6 consecutive days. […] Preference for a particular place was assessed in the drug-free state after placing the animals on the neutral platform and allowing them free access to both compartments. The time spent in each compartment during a 900-sec session was then measured automatically in a blinded fashion by two infrared beam sensors (KN-80, Natsume Seisakusyo, Tokyo, Japan) on the covers (3 cm from the center and the side) of the white and black compartments. […]
Conditioning scores represent the time spent in the drug-paired place minus the time spent in the vehicle-paired place, and are expressed as the mean±S.E.M. Behavioral data were evaluated statistically with a one-way analysis of variance (ANOVA) followed by Dunnett's test to determine whether individual doses produced significant conditioning.

[3] = test system: patients with depression; conditions: cited from earlier work
[4] = test system: morphine withdrawal signs in rats; assay: Naloxone-precipitated withdrawal from subchronic morphine; assay type: in vivo; conditions: 10 and 20 mg/kg i.p. before naloxone 1 mg/kg SC, morphine 10 mg/kg SC b.i.d.
Experimental: Forty (40) male Wistar rats served as test subjects in this study. Animals were pair housed with unrestricted access to rodent chow and water (SOP ROD.03.01, SOP ROD.04.01, SOP ROD.18). […] All experimental activity occurring during the animals' light cycle. All animal use procedures were performed in accordance with the principles of the Canadian Council on Animal Care (CCAC).
Forty (40) male Wistar rats were assigned to 5 groups of N=8 rats per group. Group A was dosed with saline vehicle (Sal; subcutaneous (SC) route) twice daily (approx. 08:00±1 h and 18:00±1 h) for 12 days. […] This treatment regimen was designed to induce opioid dependence (Erami et al., 2012). […] On days 9 and 12, rats were tested for naloxone precipitated withdrawal. According to a cross-over design (see Table 4: Treatment Groups), all rats in each group received either acute saline, or naloxone hydrochloride (1 mg/kg; dose volume 2 ml/kg) injection by the SC route, 5 minutes prior to behavioral testing. […] Lofexidine doses are based on literature values (e.g. Shearman et al., 1979). Immediately after vehicle or naloxone injection, rats were transferred to activity chambers for 30 minutes where the animals were visually assessed for somatic signs associated with opioid withdrawal (e.g. writhes, chews, ptosis, WDS, shakes, tremor, penile grooming, body weight change; see Higgins and Sellers, 1994). Simultaneously, the activity pattern (distance travelled, rearing) of each rat was automatically recorded.
Locomotor activity. Spontaneous activity in the rats was measured with the automated Med Associates activity test chamber for 30 minutes with 10-minute time bins. The tracking arena was 17″W×17″L×12″H, sensor bars are secured 1″ above the floor to track distance travelled, and a second set of sensor bars are placed ˜5″ above the floor to measure vertical movement and rearing activity. The parameters set on the tracking software were as follows: resolution—50 milliseconds (ms), box size—4 beams, resting delay—500 ms, and ambulatory trigger—2 (SOP ROD.25). […]

[5] = test system: tolerance to effects of ethanol; assay: Tolerance to ethanol, grip strength; conditions: for tolerance to the effect of ethanol on grip strength/body weight (motor-impairment): rats, 3 mg/kg given with ethanol (2.3 and 1.7) on day 1, tested day 2, 30 min post ethanol, 3 mg/kg

Compound	Plasma levels of S analyzed [1]	Morphine CPP, dose blocking the rewarding effects of morphine [2]	antidepressant effects compared with RS(+/−)-ketamine (0.5 mg/kg, i.v.) ([3]; 0.25 mg/kg i.v., treatment-resistant patients with MDD, case report, Non Patent Literature 14)	effective oral doses in patients with depression ([3]; oral, Non Patent Literatures 15 and 16)	overall morphine withdrawal scores (naloxone-precipitated withdrawal signs) [4]	overall morphine withdrawal scores (naloxone-precipitated withdrawal signs) ([4]; listed as R-ketamine)	conditioned place preference induced by morphine ([2]; 10 mg/kg i.p. co-dosed with morphine 5 mg/kg i.p., F(2,29)=2.2, p=0.064)	Ethanol Tolerance, dose blocking development of tolerance ([5]; grip strength, Present study)	tolerance to the effect of ethanol on grip strength/body weight (motor-impairment) [5]	tolerance to the effect of ethanol on grip strength/body weight (motor-impairment) ([5]; listed as R-ketamine)
CN[C@]1(c2ccccc2Cl)CCCCC1=O [S(+)-ketamine]	Plasma levels of S analyzed (50-400 ng/ml)	10 mg/kg	weaker	1.25 mg/kg						
CN[C@@]1(c2ccccc2Cl)CCCCC1=O.Cl [R(−)-ketamine]		10 mg/kg			dose-dependently attenuated overall morphine withdrawal scores	significantly attenuated the naloxone-induced withdrawal signs	trend toward significant attenuation	3 - grip strength mg/kg	tolerance was significantly diminished	blocked

From US11426367B2, “Methods of treating substance abuse” (Perception Neuroscience, Inc., priority 2018, dated 2022)
